Tested on: MSCs
Test: Whole genome expression analysis (Illumina microarray) of treated MSCs
Format: cell-based, Human
Protocol: MSCs were seeded in T25 flasks at 5000 cells/cm^2 and allowed to attach overnight in proliferation medium. […] After 48 hours, RNA was isolated as described above. From 500 ng of RNA, cRNA was synthesized using the Illumina TotalPrep RNA amplification Kit (Ambion), according to the manufacturer's protocol and the quality of RNA and cRNA was verified on a Bioanalyzer 2100 (Agilent). Microarrays were performed using Illumina HT-12 v4 expression Beadchips, according to the manufacturer's protocol. Briefly, 750 ng of cRNA was hybridized on the array overnight after which the array was washed and blocked. Then, by addition of streptavidin Cy-3 a fluorescent signal was developed. Arrays were scanned on an Illumina iScan reader and raw intensity values were background corrected in GenomeStudio (Illumina). Further data processing and statistical testing were performed with R and Bioconductor statistical software (www.bioconductor.org), using package lumi. Raw intensity values were transformed using variance stabilization and a quantile normalization was performed. A linear modelling approach with empirical Bayesian methods, as implemented in Limma package (54), was applied for differential expression analysis of the resulting probe-level expression values. A gene list, containing only those genes with an absolute 1.5-fold change between different treatments, was uploaded to Ingenuity Pathway Analysis (IPA) software and used for core analysis. Pathways or networks with a p-value of 0.05 were considered statistically significant.

## c1cnc2c(c1)ccc1cccnc12 [PHE, 1, 10-phenanthroline]
ProbeID ILMN_1827736, no gene name printed
  logFC(D142_PHE - D142_BAS): 2,01
ProbeID ILMN_1843198, no gene name printed
  logFC(D142_PHE - D142_BAS): 4,02
ProbeID ILMN_1854469, no gene name printed
  logFC(D142_PHE - D142_BAS): -2,31
ProbeID ILMN_1862909, no gene name printed
  logFC(D142_PHE - D142_BAS): 2,60
ProbeID ILMN_1890614, no gene name printed
  logFC(D142_PHE - D142_BAS): 3,60
ProbeID ILMN_2053415
  logFC(D142_PHE - D142_BAS) LDLR: -2,22
ProbeID ILMN_2054297
  logFC(D142_PHE - D142_BAS) PTGS2: 2,59
ProbeID ILMN_2062701
  logFC(D142_PHE - D142_BAS) GAS1: -2,22
ProbeID ILMN_2103547
  logFC(D142_PHE - D142_BAS) GOLGA8B: 2,29
ProbeID ILMN_2108735
  logFC(D142_PHE - D142_BAS) EEF1A2: 4,24
ProbeID ILMN_2110252, PHE vs BAS
  logFC(D142_PHE - D142_BAS) NPM3: -2,68
ProbeID ILMN_2117508, PHE vs BAS
  logFC(D142_PHE - D142_BAS) CTHRC1: -3,58
ProbeID ILMN_2128795
  logFC(D142_PHE - D142_BAS) LRIG1: 2,70
ProbeID ILMN_2129505
  logFC(D142_PHE - D142_BAS) CYBASC3: -2,00
ProbeID ILMN_2132982
  logFC(D142_PHE - D142_BAS) IGFBP5: 2,36
ProbeID ILMN_2133187
  logFC(D142_PHE - D142_BAS) POL3S: 2,59
ProbeID ILMN_2138765
  logFC(D142_PHE - D142_BAS) PLIN2: 3,41
ProbeID ILMN_2144426
  logFC(D142_PHE - D142_BAS) HIST2H2AA3: 3,65
ProbeID ILMN_2145670, PHE vs BAS
  logFC(D142_PHE - D142_BAS) TNC: -2,96
ProbeID ILMN_2148785, PHE vs BAS
  logFC(D142_PHE - D142_BAS) GBP1: -2,77
ProbeID ILMN_2150851
  logFC(D142_PHE - D142_BAS) SERPINB2: 2,73
ProbeID ILMN_2150856
  logFC(D142_PHE - D142_BAS) SERPINB2: 2,92
ProbeID ILMN_2150894, PHE vs BAS
  logFC(D142_PHE - D142_BAS) ALDH1B1: -3,56
ProbeID ILMN_2157240
  logFC(D142_PHE - D142_BAS) MNS1: -2,02
ProbeID ILMN_2173451
  logFC(D142_PHE - D142_BAS) GPI: 2,47
ProbeID ILMN_2173611
  logFC(D142_PHE - D142_BAS) MT1E: -2,20
ProbeID ILMN_2184373
  logFC(D142_PHE - D142_BAS) IL8: 6,28
ProbeID ILMN_2186061
  logFC(D142_PHE - D142_BAS) PFKFB3: 5,23
ProbeID ILMN_2186137
  logFC(D142_PHE - D142_BAS) RRAD: 3,18
ProbeID ILMN_2188862
  logFC(D142_PHE - D142_BAS) GDF15: 4,56
ProbeID ILMN_2212909
  logFC(D142_PHE - D142_BAS) MELK: -2,05
ProbeID ILMN_2216852
  logFC(D142_PHE - D142_BAS) PGK1: 2,97
ProbeID ILMN_2225537
  logFC(D142_PHE - D142_BAS) PTGR1: 2,90
ProbeID ILMN_2227248
  logFC(D142_PHE - D142_BAS) SLAMF9: 2,67
ProbeID ILMN_2229877, PHE vs BAS
  logFC(D142_PHE - D142_BAS) PCDH18: -2,41
ProbeID ILMN_2234697, PHE vs BAS
  logFC(D142_PHE - D142_BAS) BEX1: -4,70
ProbeID ILMN_2234956, PHE vs BAS
  logFC(D142_PHE - D142_BAS) LEPR: -2,85
ProbeID ILMN_2285996, PHE vs BAS
  logFC(D142_PHE - D142_BAS) KIAA0101: -3,27
ProbeID ILMN_2301083
  logFC(D142_PHE - D142_BAS) UBE2C: -2,20
ProbeID ILMN_2307903, PHE vs BAS
  logFC(D142_PHE - D142_BAS) VCAM1: -5,09
ProbeID ILMN_2308903
  logFC(D142_PHE - D142_BAS) WFDC3: 2,87
ProbeID ILMN_2322375
  logFC(D142_PHE - D142_BAS) MAFF: 3,04
ProbeID ILMN_2322498
  logFC(D142_PHE - D142_BAS) RORA: 2,13
ProbeID ILMN_2324002
  logFC(D142_PHE - D142_BAS) CALD1: -2,11
ProbeID ILMN_2324421
  logFC(D142_PHE - D142_BAS) TXNRD1: 2,30
ProbeID ILMN_2332553
  logFC(D142_PHE - D142_BAS) MSRB3: -2,12
ProbeID ILMN_2337058
  logFC(D142_PHE - D142_BAS) PORCN: 3,30
ProbeID ILMN_2338038
  logFC(D142_PHE - D142_BAS) AK3L1: 2,61
ProbeID ILMN_2342066
  logFC(D142_PHE - D142_BAS) METRNL: 2,12
ProbeID ILMN_2344283
  logFC(D142_PHE - D142_BAS) FMO3: -2,27
ProbeID ILMN_2349459, PHE vs BAS
  logFC(D142_PHE - D142_BAS) BIRC5: -2,71
ProbeID ILMN_2358069
  logFC(D142_PHE - D142_BAS) MAD1L1: 2,09
ProbeID ILMN_2360710
  logFC(D142_PHE - D142_BAS) TPM1: -2,27
ProbeID ILMN_2361862
  logFC(D142_PHE - D142_BAS) VLDLR: 3,53
ProbeID ILMN_2364022
  logFC(D142_PHE - D142_BAS) SLC16A3: 2,29
ProbeID ILMN_2367258
  logFC(D142_PHE - D142_BAS) SMOX: 2,05
ProbeID ILMN_2371458
  logFC(D142_PHE - D142_BAS) CXCR7: 2,54
ProbeID ILMN_2371911
  logFC(D142_PHE - D142_BAS) MUC1: 2,27
ProbeID ILMN_2374865
  logFC(D142_PHE - D142_BAS) ATF3: 2,39
ProbeID ILMN_2375879
  logFC(D142_PHE - D142_BAS) VEGFA: 4,30
ProbeID ILMN_2376953, PHE vs BAS
  logFC(D142_PHE - D142_BAS) KCNK2: -3,27
ProbeID ILMN_2380163
  logFC(D142_PHE - D142_BAS) PTPRF: 2,36
ProbeID ILMN_2380771
  logFC(D142_PHE - D142_BAS) AKR1A1: -2,14
ProbeID ILMN_2381697
  logFC(D142_PHE - D142_BAS) P4HA2: 2,27
ProbeID ILMN_2382942
  logFC(D142_PHE - D142_BAS) CA12: 2,61
ProbeID ILMN_2386444
  logFC(D142_PHE - D142_BAS) ANGPTL4: 3,59
ProbeID ILMN_2388547, PHE vs BAS
  logFC(D142_PHE - D142_BAS) EPSTI1: -2,93
ProbeID ILMN_2390299, PHE vs BAS
  logFC(D142_PHE - D142_BAS) PSMB8: -2,40
ProbeID ILMN_2390338
  logFC(D142_PHE - D142_BAS) UBE2E3: -2,31
ProbeID ILMN_2390919
  logFC(D142_PHE - D142_BAS) FBLN2: -2,30
ProbeID ILMN_2400935, PHE vs BAS
  logFC(D142_PHE - D142_BAS) TAGLN: -3,44
ProbeID ILMN_2401258
  logFC(D142_PHE - D142_BAS) FAM13A: 2,84
ProbeID ILMN_2404135
  logFC(D142_PHE - D142_BAS) RIOK3: 2,47
ProbeID ILMN_2405305
  logFC(D142_PHE - D142_BAS) ARNTL: 2,05
ProbeID ILMN_2413158
  logFC(D142_PHE - D142_BAS) PODXL: 3,57
ProbeID ILMN_3181489
  logFC(D142_PHE - D142_BAS) LOC100130790: 3,33
ProbeID ILMN_3212373
  logFC(D142_PHE - D142_BAS) LOC727803: -2,02
ProbeID ILMN_3228688
  logFC(D142_PHE - D142_BAS) LOC730415: 2,25
ProbeID ILMN_3233930
  logFC(D142_PHE - D142_BAS) LOC390557: 2,45
ProbeID ILMN_3237270
  logFC(D142_PHE - D142_BAS) LOC100133609: 2,75
ProbeID ILMN_3237448
  logFC(D142_PHE - D142_BAS) BEND5: 2,26
ProbeID ILMN_3237511
  logFC(D142_PHE - D142_BAS) C4orf47: 2,24
ProbeID ILMN_3237966
  logFC(D142_PHE - D142_BAS) FBXL11: 2,06
ProbeID ILMN_3239771
  logFC(D142_PHE - D142_BAS) DLGAP5: -2,24
ProbeID ILMN_3242900
  logFC(D142_PHE - D142_BAS) HIST2H2AA4: 3,75
ProbeID ILMN_3245418
  logFC(D142_PHE - D142_BAS) FAM180A: 2,34
ProbeID ILMN_3247132, PHE vs BAS
  logFC(D142_PHE - D142_BAS) LOC730743: -2,35
ProbeID ILMN_3267451
  logFC(D142_PHE - D142_BAS) GAPDHL6: 2,90
ProbeID ILMN_3280402
  logFC(D142_PHE - D142_BAS) LOC100132510: 2,32
ProbeID ILMN_3283772
  logFC(D142_PHE - D142_BAS) LOC644237: 2,73
ProbeID ILMN_3305475
  logFC(D142_PHE - D142_BAS) LOC729708: 2,12
ProbeID ILMN_3305949
  logFC(D142_PHE - D142_BAS) LOC730246: -2,06
ProbeID ILMN_3308961
  logFC(D142_PHE - D142_BAS) MIR1974: 3,51

Reference: patent publication EP2607478A1, “Phenanthroline treated MSC” (Universiteit Twente, priority 2011, dated 2013)
